Results on 24 molecules are retold here after ChEMBL document CHEMBL5050834, “Cyclic trex1 inhibitors” (2021).

One may read the IC50 as the point on the concentration scale where inhibition reaches its midpoint. High values mean weaker potency, low ones greater potency.

The nature of the test: Inhibition of human TREX1 exonuclease activity using labeled DNA oligonucleotide as substrate incubated for 30 mins and measured after 45 mins by fluorescence assay.
Consider `CC(C)C[C@H](C(=O)NCc1ccc(Cl)c(F)c1)N1CCC(CCc2ccccc2)N2C[C@H](N)C[C@H]2C1=O` (some centres undefined), for which the IC50 is less than 1 µM.

For `N#CC[C@H](C(=O)N1CCOC[C@H]1c1ccccc1)N1CCC(CCc2ccccc2)N2C[C@H](N)C[C@H]2C1=O` (some centres undefined), the concentration for half-maximal inhibition (IC50) entry was “in the range around 1 µM”. Then `COc1c(CNC(=O)[C@@H](CCc2nnn[nH]2)N2CCC(CCc3ccccc3)N3C[C@H](N)C[C@H]3C2=O)ccc(Cl)c1Cl` (some centres undefined), with less than 1 µM; and `COC(=O)CC[C@H](C(=O)NCc1ccc(Cl)c(Cl)c1)N1CCC(CCc2ccccc2)N2C[C@H](N)C[C@H]2C1=O` (some centres undefined), with less than 1 µM. Then `N#CC[C@H](C(=O)NCc1ccc(Cl)c(Cl)n1)N1CCC(CCc2ccccc2)N2C[C@H](N)C[C@H]2C1=O` (some centres undefined), with less than 1 µM; and `CCOC(=O)CC[C@H](C(=O)NCc1cc(Cl)c(Cl)cn1)N1CCC(CCc2ccccc2)N2C[C@H](N)C[C@H]2C1=O` (some centres undefined), with less than 1 µM.

In turn, `CC(C)OC(=O)CC[C@H](C(=O)NCc1ccc(Cl)c(Cl)c1)N1CCC(CCc2ccccc2)N2C[C@H](N)C[C@H]2C1=O` (some centres undefined) displayed an IC50 of less than 1 µM. Then `CC(C)C[C@H](C(=O)NCc1ccc(Cl)c(C(F)(F)F)c1)N1CCC(CCc2ccccc2)N2C[C@H](N)C[C@H]2C1=O` (some centres undefined), with less than 1 µM.

On to `CC(C)C[C@H](C(=O)NCc1ccc(Cl)c(Cl)c1)N1CCC(CS(=O)(=O)c2ccccc2)N2C[C@H](N)C[C@H]2C1=O` (some centres undefined), for which the IC50 entry was “in the range around 1 µM”. The molecule `CC(C)C[C@H](C(=O)NCc1ccc(Cl)c(Cl)c1)N1CCC(C[S+]([O-])c2ccccc2)N2C[C@H](N)C[C@H]2C1=O` (some centres undefined) displayed an IC50 of less than 1 µM. The value for `N#CC[C@H](C(=O)N1CCc2c(ccc(Cl)c2Cl)C1)N1CCC(CCc2ccccc2)N2C[C@H](N)C[C@H]2C1=O` (some centres undefined) was “in the range around 1 µM”. `CCOC(=O)CC[C@H](C(=O)N1CCOC[C@H]1c1ccc(Cl)c(Cl)c1)N1CCC(CCc2ccccc2)N2C[C@H](N)C[C@H]2C1=O` (some centres undefined) returned an IC50 of less than 1 µM. The value for `N[C@@H]1C[C@H]2C(=O)N([C@H](CCC(=O)O)C(=O)NCc3ccc(Cl)c(Cl)c3)CCC(COc3ccccc3Cl)N2C1` (some centres undefined) was less than 1 µM.

With `N[C@@H]1C[C@H]2C(=O)N([C@H](CCNS(=O)(=O)C(F)(F)F)C(=O)NCc3ccc(Cl)c(Cl)c3)CCC(CCc3ccccc3)N2C1` (some centres undefined), the IC50 is less than 1 µM. The value for `N#CCC[C@H](C(=O)NCc1ccc(Cl)c(Cl)[n+]1[O-])N1CCC(CCc2ccccc2)N2C[C@H](N)C[C@H]2C1=O` (some centres undefined) was less than 1 µM; that for `N[C@@H]1C[C@H]2C(=O)N([C@H](CCC(=O)O)C(=O)N3CCCC[C@H]3c3ccc(Cl)c(Cl)c3)CCC(CCc3ccccc3)N2C1` (some centres undefined) was less than 1 µM; that for `N[C@@H]1C[C@H]2C(=O)N([C@H]3CCCN(Cc4ccc(Cl)c(Cl)c4)C3=O)CCC(CCc3ccccc3)N2C1` (some centres undefined) was less than 1 µM. `N#CCC[C@H](C(=O)NCc1ccc(Cl)c(Cl)c1F)N1CCC(CCc2ccccc2)N2C[C@H](N)C[C@H]2C1=O` (some centres undefined) showed an IC50 of less than 1 µM. Then `N[C@@H]1C[C@H]2C(=O)N([C@H](CCC(=O)O)C(=O)NCc3ccc(Cl)c(Cl)c3)CCC(COc3cnccn3)N2C1` (some centres undefined), with “in the range around 1 µM”; and `CC(C)C[C@H](CNC(=O)c1ccc(Cl)c(Cl)c1)N1CCC(CCc2ccccc2)N2C[C@H](N)C[C@H]2C1=O` (some centres undefined), with “in the range around 1 µM”. Molecule `COc1ccc(CNC(=O)[C@@H](CC(C)C)N2CCC(CCc3ccccc3)N3C[C@H](N)C[C@H]3C2=O)cc1Cl` (some centres undefined) returned a concentration for half-maximal inhibition (IC50) of less than 1 µM. Then `NC(=O)CC[C@H](C(=O)NCc1ccc(Cl)c(Cl)c1F)N1CCC(CCc2ccccc2)N2C[C@H](N)C[C@H]2C1=O` (some centres undefined), with less than 1 µM; and `CC(C)C[C@H](C(=O)NCc1ccc(F)c(F)c1)N1CCC(CCc2ccccc2)N2C[C@H](N)C[C@H]2C1=O` (some centres undefined), with less than 1 µM. In the case of `N#CC[C@H](C(=O)N1CCOC[C@@H]1c1ccccc1)N1CCC(CCc2ccccc2)N2C[C@H](N)C[C@H]2C1=O` (some centres undefined), the half-maximal inhibitory concentration (IC50) entry is “in the range around 10 µM”.
